These results are taken from ChEMBL document CHEMBL1156264, “Synthesis and structure-activity relationships of dimeric peptide antagonists of the human immunoglobulin G-human neonatal Fc receptor (IgG-FcRn) interaction” (J Med Chem, 2010).

Assay [1] concerns the target T1, IgG receptor FcRn large subunit p51 (Homo sapiens, UniProt P55899). Briefly: Ratio of RF-Pen-TGHFG-Sar-NMeLeu-YPC IC50 to compound IC50 for soluble human FcRn.
Assay [2] concerns the target T1, IgG receptor FcRn large subunit p51. Briefly: Inhibition of IgG binding to soluble human FcRn after 2 hrs by competition ELISA. A general note: In an ELISA, binding on a coated surface is turned into a signal by an enzyme label.

Numbered stars: 1 amine (or outer) side, 2 acyl side, 3 side chain; on linkers, the order of the positions; unused ones are H or OH. Bridge positions count the residues as written; N and C are the ends. Square brackets hold non-standard residues; d marks the D form. Peptide text beside a SMILES is read from it. I, II: the chains in the order shown. X1 = O=C(C(=O)[*:2])[C@H](Cc1ccc(O)cc1)N[*:1]; NMeL = CN[C@@H](CC(C)C)C(=O)O; Pen = CC(C)(S)[C@H](N)C(=O)O; X2 = C(CN[*:1])NCCN[*:2]; Sar = CNCC(=O)O

T1 sequence (P55899 whole entry): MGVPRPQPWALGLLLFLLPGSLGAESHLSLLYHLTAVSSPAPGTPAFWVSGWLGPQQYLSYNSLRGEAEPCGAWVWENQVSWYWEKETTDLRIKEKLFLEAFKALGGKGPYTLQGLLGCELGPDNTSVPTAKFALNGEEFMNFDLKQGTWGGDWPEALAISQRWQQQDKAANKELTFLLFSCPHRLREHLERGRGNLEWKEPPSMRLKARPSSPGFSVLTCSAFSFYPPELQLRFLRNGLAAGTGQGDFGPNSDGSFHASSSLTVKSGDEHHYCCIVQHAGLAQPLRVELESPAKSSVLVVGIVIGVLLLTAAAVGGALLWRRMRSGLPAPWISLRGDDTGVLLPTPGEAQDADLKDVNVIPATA

Regarding `CC(C)C[C@H]1C(=O)N[C@@H](Cc2ccc(O)cc2)C(=O)C(=O)N2CCC[C@H]2C(=O)N[C@H](C(N)=O)CSSC(C)(C)[C@H](NC(=O)[C@H](Cc2ccccc2)NC(=O)[C@H](CCCNC(=N)N)NC(=O)CCOCCOCCOCCOCCOCCC(=O)N[C@@H](CCCNC(=N)N)C(=O)N[C@@H](Cc2ccccc2)C(=O)N[C@@H]2C(=O)N[C@@H]([C@@H](C)O)C(=O)NCC(=O)N[C@@H](Cc3c[nH]cn3)C(=O)N[C@@H](Cc3ccccc3)C(=O)NCC(=O)N(C)CC(=O)N(C)[C@@H](CC(C)C)C(=O)N[C@@H](Cc3ccc(O)cc3)C(=O)C(=O)N3CCC[C@H]3C(=O)N[C@H](C(N)=O)CSSC2(C)C)C(=O)N[C@@H]([C@@H](C)O)C(=O)NCC(=O)N[C@@H](Cc2c[nH]cn2)C(=O)N[C@@H](Cc2ccccc2)C(=O)NCC(=O)N(C)CC(=O)N1C`, the Ratio IC50 in assay [1] was found to be 110.
As a reminder, the IC50 is the concentration at which inhibition is half-maximal. Read a high IC50 as lower potency. In turn, `CC(C)C[C@H]1C(=O)N[C@@H](Cc2ccc(O)cc2)C(=O)C(=O)N2CCC[C@H]2C(=O)N[C@H](C(N)=O)CSSC(C)(C)[C@H](NC(=O)[C@H](Cc2ccccc2)NC(=O)[C@H](CCCNC(=N)N)NC(=O)C[C@H](C)C(=O)N[C@@H](CCCNC(=N)N)C(=O)N[C@@H](Cc2ccccc2)C(=O)N[C@@H]2C(=O)N[C@@H]([C@@H](C)O)C(=O)NCC(=O)N[C@@H](Cc3c[nH]cn3)C(=O)N[C@@H](Cc3ccccc3)C(=O)NCC(=O)N(C)CC(=O)N(C)[C@@H](CC(C)C)C(=O)N[C@@H](Cc3ccc(O)cc3)C(=O)C(=O)N3CCC[C@H]3C(=O)N[C@H](C(N)=O)CSSC2(C)C)C(=O)N[C@@H]([C@@H](C)O)C(=O)NCC(=O)N[C@@H](Cc2c[nH]cn2)C(=O)N[C@@H](Cc2ccccc2)C(=O)NCC(=O)N(C)CC(=O)N1C` came in with an IC50 in assay [2] of 4.6 nM. In assay [1], the Ratio IC50 was 110.
The like results for `CC(C)C[C@H]1C(=O)N[C@@H](Cc2ccc(O)cc2)C(=O)C(=O)N2CCC[C@H]2C(=O)N[C@H](C(N)=O)CSSC(C)(C)[C@H](NC(=O)[C@H](Cc2ccccc2)NC(=O)[C@H](CCCNC(=N)N)NCCNC(=O)CCC(=O)N[C@@H](CCCNC(=N)N)C(=O)N[C@@H](Cc2ccccc2)C(=O)N[C@@H]2C(=O)N[C@@H]([C@@H](C)O)C(=O)NCC(=O)N[C@@H](Cc3c[nH]cn3)C(=O)N[C@@H](Cc3ccccc3)C(=O)NCC(=O)N(C)CC(=O)N(C)[C@@H](CC(C)C)C(=O)N[C@@H](Cc3ccc(O)cc3)C(=O)C(=O)N3CCC[C@H]3C(=O)N[C@H](C(N)=O)CSSC2(C)C)C(=O)N[C@@H]([C@@H](C)O)C(=O)NCC(=O)N[C@@H](Cc2c[nH]cn2)C(=O)N[C@@H](Cc2ccccc2)C(=O)NCC(=O)N(C)CC(=O)N1C` were, in that order, 1.6 nM and 330.
`CC(C)C[C@H]1C(=O)N[C@@H](Cc2ccc(O)cc2)C(=O)C(=O)N2CCC[C@H]2C(=O)N[C@H](C(N)=O)CSSC(C)(C)[C@H](NC(=O)[C@H](Cc2ccccc2)NC(=O)[C@H](CCCNC(=N)N)NC(=O)CC[C@H](C)C(=O)N[C@@H](CCCNC(=N)N)C(=O)N[C@@H](Cc2ccccc2)C(=O)N[C@@H]2C(=O)N[C@@H]([C@@H](C)O)C(=O)NCC(=O)N[C@@H](Cc3c[nH]cn3)C(=O)N[C@@H](Cc3ccccc3)C(=O)NCC(=O)N(C)CC(=O)N(C)[C@@H](CC(C)C)C(=O)N[C@@H](Cc3ccc(O)cc3)C(=O)C(=O)N3CCC[C@H]3C(=O)N[C@H](C(N)=O)CSSC2(C)C)C(=O)N[C@@H]([C@@H](C)O)C(=O)NCC(=O)N[C@@H](Cc2c[nH]cn2)C(=O)N[C@@H](Cc2ccccc2)C(=O)NCC(=O)N(C)CC(=O)N1C`: in assay [2], the IC50 amounted to 5.6 nM. Besides, the Ratio IC50 in assay [1] was 90.
For the compound `CC(C)C[C@H]1C(=O)N[C@@H](Cc2ccc(O)cc2)C(=O)C(=O)N2CCC[C@H]2C(=O)N[C@H](C(=O)NCC(=O)NCCNCCNC(=O)CNC(=O)[C@@H]2CSSC(C)(C)[C@H](NC(=O)[C@H](Cc3ccccc3)NC(=O)[C@@H](N)CCCNC(=N)N)C(=O)N[C@@H]([C@@H](C)O)C(=O)NCC(=O)N[C@@H](Cc3c[nH]cn3)C(=O)N[C@@H](Cc3ccccc3)C(=O)NCC(=O)N(C)CC(=O)N(C)[C@@H](CC(C)C)C(=O)N[C@@H](Cc3ccc(O)cc3)C(=O)C(=O)N3CCC[C@H]3C(=O)N2)CSSC(C)(C)[C@H](NC(=O)[C@H](Cc2ccccc2)NC(=O)[C@@H](N)CCCNC(=N)N)C(=O)N[C@@H]([C@@H](C)O)C(=O)NCC(=O)N[C@@H](Cc2c[nH]cn2)C(=O)N[C@@H](Cc2ccccc2)C(=O)NCC(=O)N(C)CC(=O)N1C` (I: H-RF[Pen]TGHFG[Sar][NMeL][X1]PCG / II: H-RF[Pen]TGHFG[Sar][NMeL][X1]PCG; disulfide I:3-I:13, II:3-II:13; linker I:C-II:C via X2), the Ratio IC50 in assay [1] came out at 120.
For the compound `CC(C)C[C@H]1C(=O)N[C@@H](Cc2ccc(O)cc2)C(=O)C(=O)N2CCC[C@H]2C(=O)N[C@H](C(N)=O)CSSC(C)(C)[C@H](NC(=O)[C@H](Cc2ccccc2)NC(=O)[C@H](CCCNC(=N)N)NC(=O)CC(C)(C)CC(=O)N[C@@H](CCCNC(=N)N)C(=O)N[C@@H](Cc2ccccc2)C(=O)N[C@@H]2C(=O)N[C@@H]([C@@H](C)O)C(=O)NCC(=O)N[C@@H](Cc3c[nH]cn3)C(=O)N[C@@H](Cc3ccccc3)C(=O)NCC(=O)N(C)CC(=O)N(C)[C@@H](CC(C)C)C(=O)N[C@@H](Cc3ccc(O)cc3)C(=O)C(=O)N3CCC[C@H]3C(=O)N[C@H](C(N)=O)CSSC2(C)C)C(=O)N[C@@H]([C@@H](C)O)C(=O)NCC(=O)N[C@@H](Cc2c[nH]cn2)C(=O)N[C@@H](Cc2ccccc2)C(=O)NCC(=O)N(C)CC(=O)N1C`, the Ratio IC50 in assay [1] came out at 100.
Same read-out and setting: under `CC(C)C[C@H]1C(=O)N[C@@H](Cc2ccc(O)cc2)C(=O)C(=O)N2CCC[C@H]2C(=O)N[C@H](C(N)=O)CSSC(C)(C)[C@H](NC(=O)[C@H](Cc2ccccc2)NC(=O)[C@H](CCCNC(=N)N)NC(=O)CN(C)CC(=O)N[C@@H](CCCNC(=N)N)C(=O)N[C@@H](Cc2ccccc2)C(=O)N[C@@H]2C(=O)N[C@@H]([C@@H](C)O)C(=O)NCC(=O)N[C@@H](Cc3c[nH]cn3)C(=O)N[C@@H](Cc3ccccc3)C(=O)NCC(=O)N(C)CC(=O)N(C)[C@@H](CC(C)C)C(=O)N[C@@H](Cc3ccc(O)cc3)C(=O)C(=O)N3CCC[C@H]3C(=O)N[C@H](C(N)=O)CSSC2(C)C)C(=O)N[C@@H]([C@@H](C)O)C(=O)NCC(=O)N[C@@H](Cc2c[nH]cn2)C(=O)N[C@@H](Cc2ccccc2)C(=O)NCC(=O)N(C)CC(=O)N1C` stands 110.
Same read-out and setting: under `CC(C)C[C@H]1C(=O)N[C@@H](Cc2ccc(O)cc2)C(=O)C(=O)N2CCC[C@H]2C(=O)N[C@H](C(N)=O)CSSC(C)(C)[C@H](NC(=O)[C@H](Cc2ccccc2)NC(=O)[C@H](CCCNC(=N)N)NC(=O)CCNC(=O)CCNC(=O)CCNC(=O)CN(C)CCNC(=O)CCC(=O)N[C@@H](CCCNC(=N)N)C(=O)N[C@@H](Cc2ccccc2)C(=O)N[C@@H]2C(=O)N[C@@H]([C@@H](C)O)C(=O)NCC(=O)N[C@@H](Cc3c[nH]cn3)C(=O)N[C@@H](Cc3ccccc3)C(=O)NCC(=O)N(C)CC(=O)N(C)[C@@H](CC(C)C)C(=O)N[C@@H](Cc3ccc(O)cc3)C(=O)C(=O)N3CCC[C@H]3C(=O)N[C@H](C(N)=O)CSSC2(C)C)C(=O)N[C@@H]([C@@H](C)O)C(=O)NCC(=O)N[C@@H](Cc2c[nH]cn2)C(=O)N[C@@H](Cc2ccccc2)C(=O)NCC(=O)N(C)CC(=O)N1C` stands 220.
